# Patent US20230346790A1, “PHARMACEUTICAL COMPOSITION FOR PREVENTION OR TREATMENT OF CANCERS ASSOCIATED WITH KRAS MUTATION” (WELLMARKER BIO CO., LTD., priority 2020, published 2023)
# Entries after “also recorded” stand apart in the source; their conditions may differ.
# Experiments:
# [1] = system: cetuximab-resistant cell line R2 (LIM1215, KRAS G13D, RON Δ155); assay: Cell death rate by trypan blue staining and cell counting, cetuximab-resistant line; type: cell-based; conditions: cetuximab-resistant cell line R2, 1 µM, 48 hours
# Method: (§1) The parent cell line LIM1215 and the cetuximab-resistant cell line R2 were counted, and each of them was seeded at 3×10^5 cells in a 60 mm dish. After 24 hours, treatment with 1 µM of each of the compounds of Example 1, Example 2, Example 3, Example 4, Example 5, positive control 1 (BMS-777607), positive control 2 (crizotinib), and positive control 3 (cabozantinib) was performed. After 48 hours had elapsed since the treatment, the cells were collected, resuspended in 1x phosphate buffered saline (PBS), and stained with a trypan blue solution. The stained cells were counted using a hemocytometer. Cell counting was performed in duplicate, and the mean and the standard deviation were calculated.
# [2] = system: cell line R2 exhibiting secondary resistance to cetuximab, overexpressing β-catenin; assay: Cell death induction after β-catenin overexpression, trypan blue exclusion assay; type: cell-based; conditions: 48 hours
# Method: (§2) Subsequently, all cells were collected when 48 hours had elapsed. Cell death induction efficacy was compared and analyzed using a trypan blue exclusion assay. In addition, using these samples, changes in expression of respective proteins were compared and analyzed with the western blotting method.
# [3] = system: pTyr-mRON, p-ERK, β-catenin, c-myc, cleaved caspase-3 in cell line R2; assay: Western blotting of protein expression after empty vector or β-catenin transfection; type: cell-based
# Method: The parent cell line LIM1215 and the cetuximab-resistant cell line R2 were counted. 2×10^6 cells of each cell line were washed with 1x PBS once and then lysed with 1x RIPA lysis buffer. The cell lysate was reacted on ice for 20 minutes, and then centrifuged at 13,000 rpm for 20 minutes at 4° C. to obtain a supernatant. After proteins in the obtained supernatant were quantified using Bradford method, 20 µg of the protein was subjected to sodium-polyacrylamide gel electrophoresis (SDS-PAGE).
# Transfer was performed using polyvinylidene fluoride (PVDF) membrane. Then, each of phospho-RON antibody (MyBiosource, Inc., cat# MBS462024; 1:500), RON antibody (Santa Cruz Biotechnology, cat# sc-374626; 1:1,000), phospho-EGFR antibody (Cell Signaling Technology, Inc., cat# 2234; 1:1,000), EGFR antibody (Cell Signaling Technology, Inc., cat# 2232; 1:1,000), phospho-Akt antibody (Cell Signaling Technology, Inc., cat# 4060; 1:1,000), Akt antibody (Cell Signaling Technology, Inc., cat# 9272; 1:1,000), phospho-ERK antibody (Cell Signaling Technology, Inc., cat# 4370; 1:1,000), ERK antibody (Cell Signaling Technology, Inc., cat# 4695; 1:1,000), phospho-β-catenin antibody (Cell Signaling Technology, Inc., cat# 9561; 1:1,000), β-catenin antibody (Cell Signaling Technology, Inc., cat# 8480; 1:1,000), c-myc antibody (Santa Cruz Biotechnology, cat# sc-40; 1:500), and β-actin antibody (Santa Cruz Biotechnology, cat# sc-47778; 1:1,000) was diluted in 5% skim milk tris buffered saline with Tween 20 (TBS-T) solution and reacted at 4° C. overnight.
# After completion of the reaction, washing with the TBS-T solution was performed three times for 10 minutes each. Subsequently, anti-mouse-HRP or anti-rabbit-HRP (Cell Signaling Technology, Inc., cat# 7074 or 7076; 1:2,000) was diluted in the 5% skim milk TBS-T solution, and then reacted at room temperature for 2 hours. Then, washing with the TBS-T solution was performed three times for 10 minutes each, and then development was performed using an ECL solution (GE Healthcare, cat# RPN2108).
# as §2
# [4] = system: cell line R2 exhibiting secondary resistance to cetuximab (LIM1215, KRAS G13D); assay: Tumor growth inhibition in mice transplanted with cetuximab-resistant cell line R2; type: in vivo, BALB/c nude mice; conditions: R2 xenograft mice
# Method: 5-Week-old female BALB/c nude mice were purchased and acclimatized for 1 week. […] The compound of Example 1 was orally administered when the tumor reached a size of about 100 mm^3. The compound of Example 1 was administered once a day for 2 weeks, and tumor size and body weight were measured twice a week.
# (§3) After completion of the 4-week experiment, the experimental animals were euthanized, and then the tumors were extracted and weighed. In addition, with respect to the tumor tissues, changes in expressions of pTyr-mRON, mRON, β-catenin, and cleaved caspase-3 were analyzed with immunohistochemical staining.
# [5] = system: pTyr-mRON, mRON, β-catenin, cleaved caspase-3 in tumor tissues; assay: Immunohistochemical staining of extracted tumor tissues; type: in vivo, BALB/c nude mice; conditions: R2 xenograft
# Method: as §3
# [6] = system: parent cell line LIM1215; assay: Cell death rate by trypan blue staining and cell counting, cetuximab-sensitive parent line; type: cell-based; conditions: parent cell line LIM1215, 1 µM, 48 hours
# Method: as §1
# [7] = cell line R2, β-catenin overexpressed
# [8] = cell line R2 transfected with the empty vector
smiles,measurement,setting,value
"CCOc1ccn(-c2ccc(F)cc2)c(=O)c1C(=O)Nc1ccc(Oc2ccnc3cc(-c4ccc(CN5CCOCC5)cn4)sc23)c(F)c1.Cl [Example 1, 4-Ethoxy-N-[3-Fluoro-4-({2-[5-(Morpholinomethyl)Pyridine-2-yl]Thieno[3,2-b]Pyridine-7-yl}Oxy)Phenyl]-1-(4-Fluorophenyl)-2-Oxo-1,2-Dihydropyridine-3-Carboxamide Hydrochloride]",cell death rate,[1]; Hydrochloride,high cell death rate; also recorded: cell death was effectively induced
same,cell death induction efficacy,[2],reduced
same,expression of pTyr-mRON,"[3]; cell line R2, regardless of β-catenin, western blotting",decreased
same,expression of c-myc,[3]; [7],increased again
same,expression of cleaved caspase-3,[3]; [7],decreased
same,expression of p-ERK,[3]; [7],increased again
same,expression of β-catenin,[3]; [7],increased again
same,expression of c-myc,[3]; [8],decreased
same,expression of p-ERK,[3]; [8],decreased
same,expression of β-catenin,[3]; [8],decreased
same,"Tumor growth inhibition (TGI, %)","[4]; 15 mg/kg, oral once a day",62.3±4.5%
same,tumor size inhibition effect as compared with cetuximab,[4]; small dose,remarkably excellent tumor size inhibition effect
same,expression of cleaved caspase-3 in tumor tissue,[5],increased
same,expression of pTyr-mRON in tumor tissue,[5],decreased
same,expression of β-catenin in tumor tissue,[5],decreased
"CCOc1ccn(-c2ccccc2)c(=O)c1C(=O)Nc1ccc(Oc2ccnc3cc(-c4ccc(CNCCOC)cn4)sc23)c(F)c1.Cl [Example 2, 4-Ethoxy-N-(3-Fluoro-4-{[2-(5-{[(2-Methoxyethyl)Amino]Methyl}Pyridine-2-yl)Thieno[3,2-b]Pyridine-7-yl]Oxy}Phenyl)-2-Oxo-1-Phenyl-1,2-Dihydropyridine-3-Carboxamide Hydrochloride]",cell death rate,[1]; Hydrochloride,cell death was effectively induced
"CCOc1ccn(-c2ccccc2)c(=O)c1C(=O)Nc1ccc(Oc2ccnc3cc(-c4ccc(CN5CCN(C)CC5)cn4)sc23)c(F)c1.Cl [Example 3, 4-Ethoxy-N-{3-Fluoro-4-[(2-{5-[(4-Methylpiperazin-1-yl)Methyl]Pyridin-2-yl}Thieno[3,2-b]Pyridin-7-yl)Oxy]Phenyl}-2-Oxo-1-Phenyl-1,2-Dihydropyridine-3-Carboxamide Hydrochloride]",cell death rate,[1]; Hydrochloride,cell death was effectively induced
"COc1cc2c(Oc3ccc(NC(=O)c4c5c(cn(-c6ccc(F)cc6)c4=O)CCO5)cc3F)ccnc2cc1OCCN1CCOCC1 [Example 4, N-(3-Fluoro-4-((6-Methoxy-7-(2-Morpholinoethoxy)Quinolin-4-yl)Oxy)Phenyl)-5-(4-Fluorophenyl)-6-Oxo-2,3,5,6-Tetrahydrofuro[3,2-c]Pyridine-7-Carboxamide]",cell death rate,[1],cell death was effectively induced
"COc1cc2c(Oc3ccc(NC(=O)c4c5c(cn(-c6ccc(F)cc6)c4=O)CCO5)cc3F)ccnc2cc1OCCCN1CC(C#N)C1 [Example 5, N-(4-((7-(3-(3-Cyanoazetidine-1-yl)Propoxy)-6-Methoxyquinoline-4-yl)Oxy)-3-Fluorophenyl)-5-(4-Fluorophenyl)-6-Oxo-2,3,5,6-Tetrahydrofuro[3,2-c]Pyridine-7-Carboxamide]",cell death rate,[1],cell death was effectively induced
"CCOc1ccn(-c2ccc(F)cc2)c(=O)c1C(=O)Nc1ccc(Oc2ccnc(N)c2Cl)c(F)c1 [positive control 1, reference compound]",cell death rate,[6],cell death was not induced
same,cell death rate,[1],cell death was not induced
"C[C@@H](Oc1cc(-c2cnn(C3CCNCC3)c2)cnc1N)c1c(Cl)ccc(F)c1Cl [positive control 2, reference compound]",cell death rate,[6],increased cell death rate
same,cell death rate,[1],cell death was not induced
